The values that follow come from BindingDB's records for doi:10.1021/jm9509096 (1996).

The target of the experiment is cGMP-specific 3',5'-cyclic phosphodiesterase (Cavia porcellus). The experiment can be described thus: Inhibition in vitro of Phosphodiesterase 5 isolated from guinea pig lung.

SMILES strings stand for the structures. Where a name gives a salt, the structure may show the parent alone. Bounds are passed on as bounds.

In general, IC50 refers to the concentration needed to halve the response being measured. The low end stands for higher potency, the high end for lower potency. As for `COc1cc2cc(CO)c(CO)c(-c3cc[nH]c(=O)c3)c2cc1OC` [4-(2,3-Bis-hydroxymethyl-6,7-dimethoxy-naphthalen-1-yl)-3H-pyridin-2-one], the midpoint of inhibition, the IC50, lay at 10 µM.
With `COc1cc2cc(CO)c(CO)c(-c3cc(OC)c(OC)c(C(=O)N(C)C)c3)c2cc1OC` [5-(2,3-Bis-hydroxymethyl-6,7-dimethoxy-naphthalen-1-yl)-2,3-dimethoxy-N,N-dimethyl-benzamide] the figure was 30 µM; with `COc1cc2cc(CO)c(CO)cc2cc1OC` [(3-Hydroxymethyl-6,7-dimethoxy-naphthalen-2-yl)-methanol], more than 100 µM.
With `CCOc1cc2cc(CO)c(CO)c(-c3cc(N)c(OC)c(OC)c3)c2cc1OCC` [[1-(3-Amino-4,5-dimethoxy-phenyl)-6,7-diethoxy-3-hydroxymethyl-naphthalen-2-yl]-methanol; hydrochloride] the figure was 30 µM.
With `COc1cc2cc(CO)c(CO)c(-c3cc(OC)c(OC)c(S(C)(=O)=O)c3)c2cc1OC` [[3-Hydroxymethyl-1-(3-methanesulfonyl-4,5-dimethoxy-phenyl)-6,7-dimethoxy-naphthalen-2-yl]-methanol] the figure was 53 µM.
In the case of `COc1cc2cc(CO)c(CO)c(Cc3cc(OC)c(OC)c(OC)c3)c2cc1OC` [[3-Hydroxymethyl-6,7-dimethoxy-1-(3,4,5-trimethoxy-benzyl)-naphthalen-2-yl]-methanol], the half-maximal inhibitory concentration (IC50) was 20 µM.
With `COc1cc2cc(CO)c(CO)c(-c3cc(OC)c(OC)c(OC)c3)c2cc1OC` [[3-Hydroxymethyl-6,7-dimethoxy-1-(3,4,5-trimethoxy-phenyl)-naphthalen-2-yl]-methanol] the figure was 3 µM; with `COc1ccc2c(-c3cc(OC)c(OC)c(OC)c3)c(CO)c(CO)cc2c1` [[3-Hydroxymethyl-6-methoxy-1-(3,4,5-trimethoxy-phenyl)-naphthalen-2-yl]-methanol], 8 µM.
With `COc1cc(-c2c(CO)c(CO)cc3cc4c(cc23)OCO4)cc(OC)c1OC` [[7-Hydroxymethyl-5-(3,4,5-trimethoxy-phenyl)-naphtho[2,3-d][1,3]dioxol-6-yl]-methanol] the figure was more than 30 µM.
